The values that follow come from publication PMC9446078 (Frontiers in Endocrinology, 2022).

The data set is described as follows: Toxicokinetics in miniature swine. The class given is in vivo, Hanford miniature swine. As to the method:
A total of 40 Hanford miniature swine (20 male and 20 female) divided into four treatment groups were used for this study. A 12-week topical application of Galnobax 20% was carried out in the miniature swine wound healing model with twice-daily dosing. Six wounds (10 cm^2 each) of partial thickness were created on the dorsal region of all animals. Four wounds of each animal received twice-daily topical doses of either the vehicle or Galnobax gel, and the remaining two sites served as untreated comparative control wounds. Each group has four male and female miniature swine for the assessments and one each for the recovery period as given in Table 1 . Safety parameters in terms of ECG, clinical pathology, wound site evaluation, and toxicokinetics were performed during the study.

The mark [1] stands for this setting: Day 1, Group 2 swine, topical 400 mg Galnobax Gel, mean.
Where [2] appears, read: Week 6, Group 2 swine, topical 400 mg Galnobax Gel BID, mean.
Setting [3] is: Week 12, Group 2 swine, topical 400 mg Galnobax Gel BID, mean.

Take `CC(C)NCC(O)COc1ccc(CCC(=O)O)cc1` (centres unmarked) [Esmolol Acid, Esmolol acid]: under setting [1], the AUClast worked out at 3780 ng·h/mL, the Cmax is 683 ng/mL, the Tmax was found to be 2.60 h and the t1/2 was 4.18 h. Further, under “Day 1, Group 2 swine, topical 400 mg Galnobax Gel, mean, listed as Esmolol acid”, the t1/2 result is reported as “approximately 4 hr”. Under setting [2], the AUClast turned out to be 308 ng·h/mL, the maximum concentration (Cmax) turned out to be 52.5 ng/mL and the time of peak concentration (Tmax) came to 5.33 h. Moreover, under setting [3], the AUC0-8 amounted to 269 ng·h/mL, the AUClast was 291 ng·h/mL, the maximum concentration (Cmax) was 59.7 ng/mL and the Tmax was determined as 2.09 h. Under setting [3], this molecule yielded a t1/2 of 15.90 h. In addition, the “accumulation after 12 weeks of twice-daily topical application” value (miniature swine, topical Galnobax) is given as “no apparent accumulation”.

The term Cmax denotes the maximum level reached in the sampled fluid or tissue. One may read the Tmax as the time at which the peak concentration occurs.
